Reference: article PMC5444695, “CM363, a novel naphthoquinone derivative which acts as multikinase modulator and overcomes imatinib resistance in chronic myelogenous leukemia” (Oncotarget, 2016)

Experiments:
[1] = Body weight of xenografted mice; format: in vivo; conditions: CM363 10 mg/kg i.p., 25 days
Method: Six weeks old female athymic mice (NOD-SCID), were purchased from Charles River River (Barcelona, Spain), and were housed in a specifically designed pathogen-free isolation facility as reported previously. The mice were subcutaneously inoculated into the right flank with 2.5 × l0^6 K562 cells in 100 μL of RPMI-1640 medium and 100 μL of Matrigel. When tumors became palpable, mice were randomized into three groups (n = 8 per group); the control group (receiving vehicle alone- DMSO: PEG-400: sterile water at 5:25:70 (w/v)), the group receiving CM363 10 mg/Kg or the group receiving the positive control IM 40 mg/kg. The vehicle and CM363 treatments were administered via intraperitoneal injection (i.p.) every day except Saturday and Sunday. While IM was administered orally using the same schedule. The study was conducted over a 25 days period. Caliper measurements of the tumor diameters were performed twice per week, and the tumor volume was estimated as the volume of an ellipse using the following formula: V = 4/3n × (a/2) × (b/2)^2, where a and b correspond to the longest and shortest diameter, respectively. Mice were sacrificed when their tumor diameters reached 2 cm, or when they became moribund. Differences in tumor volumes between control and treated group were evaluated using the Mann-Whitney test.

T47D cells = assay: MTT cell viability assay, T47D cells; format: cell-based; conditions: Homo sapiens, 48 h, read-out: IC50 (μM) Mean ± SD
Method: All cell lines were purchased from the American Type Culture Collection (ATCC). The cell lines were growth at 37°C under 5% CO2 under humidified atmosphere. The cell lines K562 (derived from patients during the blast crisis phase of CML and IM sensitive), K562-R (IM resistance human CML), KmycBT15I (KBTI; IM resistant human CML, expressing the Bcr-Abl […] mutant), HEL (human erythroleukemia), HL60 (human acute myeloid leukemia), MOLM-13 (human acute myeloid leukemia), MV4.11 (human acute monocytic leukemia), HCT-15 (human colorectal adenocarcinoma), PC3 (human prostate cancer), MCF7 (human breast cancer), NCTC3749 (mouse lymphoma) as well as the MRC.5 cells (non-malignant human lung fibroblasts) were maintained in RPMI-1640 medium. The cell lines L1210 (mouse lymphocytic leukemia cells), Raw (mouse macrophage), HeLa (human epithelial cervix cancer), U-2 OS (human osteosarcoma), MG63 (human osteosarcoma) and T47D (human breast cancer adenocarcinoma) were maintained in DMEM. HEK293 cells stably expressing the GH receptor (HEKGHR) were maintained in DMEM-F12 medium. […]
Cells were seeded in 96-well plates (BD Falcon, France) at exponential growth density (5000–20000 cells/well) and treated with vehicle (0.05% DMSO) or compound (0.01 to 10 μM) for 48–72 h. […] Optical density was measured at 595 nm with the iMark Microplate Reader (BioRad, CA, USA).

## N#Cc1ccc(C2C3=C(CCCC3=O)OC3=C2C(=O)c2ccccc2C3=O)cc1 (centres unmarked) [CM363, 4-(1,6,11-trioxo-2,3,4,6,11,12-hexahydro-1H-benzo[b]xanthen-12-yl)benzonitrile]
[1]
  body weight: no significant body weight reduction
T47D cells
  IC50: 1.3 ± 1.2 µM
